The METLIN SMRT retention time set (Domingo-Almenara et al. 2019)

Experiment: gradient 5% acetonitrile 3 min, to 50% in 2 min, to 85% in 15 min, held 3 min, 100 µL/min
Details: column: Zorbax Extend-C18 2.1 x 50 mm; eluents: water / acetonitrile, 0.1% formic acid
Summary of the method: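 Retention times of pure standards were taken from adduct peaks that were selected by computer and manually inspected. Over 3 months, mixtures of ~100 molecules were run by HPLC–quadrupole time-of-flight mass spectrometry in positive and negative ionization mode. The Zorbax Extend-C18 column (2.1 × 50 mm, 1.8 μm) ran at 100 μL/min in water and acetonitrile, each containing 0.1% formic acid, with 40 μL dead volume and 900 μL dwell volume.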

SMILES	RP-LC retention time [s]
COc1ccc2c(c1)OC1(C)CC2C(S(=O)(=O)c2ccc(C)c(C)c2)C(=O)N1 (stereo not given)	934
Fc1ccc(-c2nc3ncccn3c2NCc2ccc(Cl)cc2)cc1	782
CCC(CC)C(=O)Nc1nc(-c2ccc3c(c2)NC(=O)CO3)cs1	846
Cc1ccccc1Nc1c(-c2ccc(N(C)C)cc2)nc2cccc(C)n12	811
COc1cc(NS(=O)(=O)c2cc(-c3cnn4c(C)cc(C)nc34)ccc2OC)cc(OC)c1	949
Cc1ccccc1CNC(=O)C1CCCN(c2ccc(=O)n(-c3cccc(Cl)c3)n2)C1 (stereo not given)	922
O=c1ccn(-c2cccc(F)c2)nc1-c1nc(-c2ccccc2Br)no1	905
CCSCCOC(=O)C1=C(C)NC2=C(C(=O)CCC2)C1c1ccc(C(=O)OC)cc1 (stereo not given)	892
COC1CC2C=C(C)/C=C/C=C/C(=O)NC(c3ccccc3)C/C=C/CCC(O)CC(=O)C2=C1O (stereo not given)	977
O=C(CSc1ncc(CO)n1Cc1ccccc1)N1CCCc2ccccc21	684
COCCNC(=O)C1COC2(CCCCC2)N1C(=O)c1cccc(F)c1 (stereo not given)	719
CCOC(=O)c1cc(C2CC2)nc2c1c(=O)n(Cc1ccccc1C)c(=O)n2C	1240
CCCc1nc2cccnc2n1C1CCN(C(=O)COc2ccccc2)C1 (stereo not given)	630
O=C(Nc1ccc(F)cc1)C(=O)c1ccc[nH]1	821
O=C1CC(c2noc(-c3cc(F)cc(F)c3)n2)CN1c1ccc(Cl)cc1 (stereo not given)	1100
CCc1cccc(C)c1NC(=O)C1Cc2cc(S(=O)(=O)N3CCCCC3)ccc2N1C(C)=O (stereo not given)	900
COc1ccc(CN2CCN(C(c3ccc(F)cc3)c3ccc(F)cc3)CC2)c(OC)c1OC	857
CCCN(CC1CCOC1)C(=O)Nc1ccccc1C (stereo not given)	768
CC1=C(c2ccc(Cl)cc2)S(=O)(=O)N=C1N1CCCN(C(=O)Cn2ccnc2)CC1	633
CCCNc1cc(N2CCC(CCC(=O)NCc3ccccc3C)CC2)ncn1	702
Cc1oc2ncnc(N3CCCC(C(=O)NCc4cccnc4)C3)c2c1C (stereo not given)	593
Cn1nc2n(c1=O)CCN(Cc1ccc(C(C)(C)C)cc1)C2	707
CCc1ccc(-c2cn3cc(C(=O)N(CC)CC)ccc3n2)cc1	675

SMILES	RP-LC retention time [s]
O=C1CC(c2noc(-c3ccc(F)cc3)n2)CN1c1ccc(F)c(Cl)c1 (stereo not given)	1100
CC(C)N1C(=O)c2cccnc2Sc2cc(NC(=O)Cc3ccccc3F)ccc21	858
CNC(=O)C1CCCN(c2nc3ncn(CC(=O)NCc4cccc(OC)c4)c(=O)c3s2)C1 (stereo not given)	621
COc1cc(-c2nc3ncccn3c2Nc2ccc(C)c(Cl)c2)ccc1O	704
CN(C)c1nc(Nc2ccc(F)cc2)c2cnn(-c3ccccc3)c2n1	1310
Cc1ccc(CNC(=O)Nc2c(-c3ccccc3)nc3ccccn23)cc1	662
O=C(NC1CCCC1)C1CCCN(c2ncnc3c2oc2ccccc23)C1 (stereo not given)	713
COc1ccc(OC)c(NC(=O)N2CCC(CN3CCC(C)CC3)CC2)c1	626
Cc1cccc(S(=O)(=O)N2C[C@@H]3CN(S(=O)(=O)c4c(C)noc4C)C[C@H](C2)O3)c1	920
CCc1ccc(CNC(=O)Cn2c(C)nc3onc(C)c3c2=O)cc1	821
COc1ccc(OC)c(CNC(=O)Cc2nnc(-c3cnccn3)o2)c1	616
COc1ccc2cccc(NC(=O)c3c(F)cccc3Cl)c2n1	1090
COC(=O)c1ccc(NC(=O)CN2CCc3[nH]c4c(F)c(Cl)ccc4c(=O)c3C2)cc1	630
CN1CCC(N2CCN(C(=O)c3cc(-c4ccc(F)cc4)cn3C)CC2)CC1	576
Cc1ccc2[nH]c(C(N)=O)c(N3CCCC3=O)c2c1	646
CC1C(=O)NCCN1C(=O)CCSc1ccc(Cl)cc1 (stereo not given)	674
O=C(NCC1CCOCC1)c1ccc2[nH]ccc2c1	742
Cc1cc(C)n(-c2ccc(C(=O)NCc3cc(F)cc(F)c3)cn2)n1	943
CCn1cc(CN2CCC(C(=O)NCc3ccc(OC)cc3OC)CC2)c2cc(OC)ccc21	716
CCCCN(C)S(=O)(=O)c1cc(-c2nnc(C)o2)co1	821
CCN(CCN(C)C)c1ccc(C(=O)O)cc1NS(=O)(=O)c1ccc(F)cc1	613
CCc1ccc2nc(NC3=NCN(Cc4cccnc4)CN3)nc(C)c2c1	608
